Test [1] concerns the target T1, pure human RTN4 protein (Homo sapiens, UniProt Q9NQC3).
T1 construct: purchased Fisher Scientific
T1 sequence (Q9NQC3 1-1192): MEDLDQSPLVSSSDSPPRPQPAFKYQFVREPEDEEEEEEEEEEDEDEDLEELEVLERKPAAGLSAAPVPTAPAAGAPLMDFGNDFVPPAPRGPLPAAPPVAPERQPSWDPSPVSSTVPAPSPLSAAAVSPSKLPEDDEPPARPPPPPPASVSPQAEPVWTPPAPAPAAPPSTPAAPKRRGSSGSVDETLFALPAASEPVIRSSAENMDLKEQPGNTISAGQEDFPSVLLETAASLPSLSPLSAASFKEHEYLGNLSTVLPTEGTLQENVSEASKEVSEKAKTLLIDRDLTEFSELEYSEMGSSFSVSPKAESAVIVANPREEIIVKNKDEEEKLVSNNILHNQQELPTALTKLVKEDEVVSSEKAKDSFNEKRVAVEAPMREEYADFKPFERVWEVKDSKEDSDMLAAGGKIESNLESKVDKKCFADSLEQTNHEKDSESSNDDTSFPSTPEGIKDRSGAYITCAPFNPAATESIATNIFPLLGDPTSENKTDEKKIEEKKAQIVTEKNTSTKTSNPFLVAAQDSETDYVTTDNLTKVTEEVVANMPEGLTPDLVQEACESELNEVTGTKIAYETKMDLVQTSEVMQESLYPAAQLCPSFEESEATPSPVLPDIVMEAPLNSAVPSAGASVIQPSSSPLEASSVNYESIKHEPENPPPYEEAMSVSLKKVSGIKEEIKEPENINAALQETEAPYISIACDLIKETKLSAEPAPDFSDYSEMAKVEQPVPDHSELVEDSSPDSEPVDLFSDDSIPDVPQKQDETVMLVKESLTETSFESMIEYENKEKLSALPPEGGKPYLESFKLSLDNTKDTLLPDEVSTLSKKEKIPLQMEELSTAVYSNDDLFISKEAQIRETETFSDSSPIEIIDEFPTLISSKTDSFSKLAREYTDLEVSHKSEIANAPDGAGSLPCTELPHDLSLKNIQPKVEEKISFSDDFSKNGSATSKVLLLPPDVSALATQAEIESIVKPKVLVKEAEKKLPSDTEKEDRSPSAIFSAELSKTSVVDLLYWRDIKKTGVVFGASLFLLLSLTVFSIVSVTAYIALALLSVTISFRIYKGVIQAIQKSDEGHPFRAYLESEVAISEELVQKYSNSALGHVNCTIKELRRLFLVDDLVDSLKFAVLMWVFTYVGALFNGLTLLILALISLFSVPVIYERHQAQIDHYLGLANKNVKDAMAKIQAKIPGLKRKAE
Briefly: Gel-based ABPP competition against IAyne labeling of pure human RTN4 protein. The class given is binding. The procedure: (§1) FIGS. 11A-11C. DKM 3-30 and analogs. (FIG. 11A) Structures of DKM 3-30 and analogs. (FIG. 11B) Gel-based ABPP analysis showing competition side-by-side competition studies of DKM 3-30, YP 1-46, and AMR 1-125 against IA-rhodamine labelling of pure human RTN4. Shown are the 50% inhibitory concentration (IC50) values for each compound. (FIG. 11C) Serum-free cell survival of U2OS (48 h) or SW620 (24 h) cells treated with DMSO vehicle or each compound (50 μM). Data in (C) are presented as mean±sem. Significance is expressed as *p<0.001 compared to vehicle-treated controls.
Gel-Based ABPP. Gel-based ABPP methods were performed as previously described^24. Recombinant RTN4 (0.06 μg) protein (RTN4-Fisher Scientific) were pre-treated with DMSO or DKM 3-30, respectively, for 1 h at 37° C. in an incubation volume of 50 μL PBS, and were subsequently treated with IAyne (10 μM final concentration) for 30 min at 37° C. CuAAC was performed to append rhodamine-azide onto IAyne probe-labeled proteins. The samples were separated by SDS/PAGE and scanned using a ChemiDoc MP (Bio-Rad Laboratories, Inc). Inhibition of target labeling was assessed by densitometry using ImageStudio Light software.

Test [2] has as its system U2OS osteosarcoma cells. Briefly: Serum-free cell survival of U2OS cells. Format: cell-based. The note with it: 50 μM, 48 h. The protocol:
as §1
(§2) Cell Culture. SW620 cells were purchased from ATCC. SW620 cells were grown in L-15 media with 10% fetal bovine serum (FBS) in ambient CO2. U2OS cells were grown in DMEM media supplemented with 10% FBS at 37° C. with 5% CO2.
(§3) Survival and Proliferation Assays. Cells were plated the evening before the experiment, and allowed to adhere overnight. For serum-free cell survival assays, cells were plated in media not containing FBS. For cell proliferation assays, cells were plated in regular media. For the chemical genetics screen, cells were treated with either DMSO or the cysteine-reactive fragment for 48 h and cell viability was assessed by Hoescht stain using our previously described methods

Test [3] relates to U2OS cells expressing GFP-tagged Sec61β. Briefly: ER morphology by fluorescence microscopy in U2OS cells expressing GFP-Sec61β. The class given is cell-based. To be noted: DKM 3-30 50 μM (8 hr, 16 hr, time-lapse); AMR 1-125 1 μM; YP 1-46 50 μM. The procedure:
Fluorescence microscopy. SW620 and U2OS cells were transiently transfected with a plasmid encoding GFP-tagged Sec61β using fuGENE6 (Roche) according to the manufacturer's instructions. Transfected cells plated on poly-L-lysine treated coverslips were treated, washed in PBS, and fixed by incubation in 4% paraformaldehyde in PBS for 10 min. Fixed cells were washed extensively in PBS and nuclei stained by addition of 4′,6-diamidino-2-phenylindole (DAPI) (Thermo Fisher Scientific) for 10 min. Coverslips were mounted using Fluoromount-G (SouthernBiotech) and visualized using a DeltaVision Elite microscope outfitted with a 60× oil immersion objective. Acquired stacks of images of fixed cells were deconvolved and analyzed using SoftWoRx and ImageJ. For time-lapse imaging of live cells, transfected cells were plated on poly-L-lysine treated glass-bottom 4-well imaging chambers (Lab-Tek II; Thermo Fisher Scientific). Imaging was performed using a DeltaVision Elite microscope encased in a chamber that was maintained at 37° C. and was continuously perfused with humidified 5% CO2. Acquired images were analyzed using SoftWoRx and ImageJ.

Test [4] concerns SW620 colorectal cancer cells. Briefly: Serum-free cell survival of SW620 cells (Hoescht staining). The class given is cell-based. The note with it: 50 μM, 24 h.
For test [5], the system named is SW620 colorectal cancer cells. The description is as above. The class given is cell-based. The note with it: Homo sapiens, SW-620, cysteine-reactive fragment 50 μM, 48 h, vs DMSO, average of n = 3/group, read-out: SW620 survival Ave. The procedure:
as §2, §3

In test [6] the test system is SW620 colorectal cancer cells. Kind of test: Cell proliferation of SW620 cells (Hoescht staining). Format: cell-based. To be noted: Homo sapiens, SW-620, cysteine-reactive fragment 50 μM, 48 h, vs DMSO, average of n = 3/group, read-out: SW620 proliferation Ave. The procedure:
as §2, §3

The values that follow come from US20200062696A1, “COMPOSITIONS AND METHODS FOR INHIBITING RETICULON 4” (THE REGENTS OF THE UNIVERSITY OF CALIFORNIA, priority 2017, published 2020).

“Also recorded” adds a separate entry of the source.

On to `C=CC(=O)Nc1ccc(Oc2ccc(C(C)(C)C)cc2)cc1` [AMR 1-125, N-(4-(4-(tert-butyl)phenoxy)phenyl)acrylamide], for which the “improved potency compared to DKM 3-30” value in test [1] (competition against probe labelling of pure human RTN4, from IC50 values of FIG. 11B) was approximately 7 fold. Moreover, in test [2], the “cell survival in U2OS cells” value is given as “impaired”. Further, the “ER morphology in U2OS cells” value in test [3] is given as “impaired; also recorded: alters ER morphology”. Besides, the “cell survival in SW620 cells” value in test [4] is “impaired”.
Regarding `C=CC(=O)NCC(OCC)OCC` [DKM 3-9, N-(2,2-diethoxyethyl)acrylamide], in test [5], the viability at 50 µM was found to be 75%. Moreover, the activity at 50 µM in test [6] is 100%.
Taken in the same sequence, the figures for `C=CC(=O)Nc1ccc(SC)cc1` [DKM 3-10, N-(4-(methylthio)phenyl)acrylamide] were 41% and 79%.
For `C=CC(=O)N1CCC(C#N)CC1` [DKM 3-11, 1-acryloylpiperidine-4-carbonitrile] the same measures were 120% and 118%.
Taken in the same sequence, the figures for `C=CC(=O)NCCCSC` [DKM 3-12, N-(3-(methylthio)propyl)acrylamide] were 129% and 106%.
In the case of `C=CC(=O)NCC1CCCCC1` [DKM 3-13, N-(cyclohexylmethyl)acrylamide], the viability at 50 µM in test [5] is 77%. Besides, in test [6], the activity at 50 µM stood at 94%.
Turning to `C=CC(=O)Nc1ccc(-c2ccc(CC)cc2)cc1` [DKM 3-16, N-(4′-ethyl-[1,1′-biphenyl]-4-yl)acrylamide], the viability at 50 µM in test [5] came out at 34%. Moreover, the activity at 50 µM in test [6] is 60%.
With `C=CC(=O)N1CCN(c2ccc(C(C)=O)cc2)CC1` [DKM 3-29, 1-(4-(4-acetylphenyl)piperazin-1-yl)prop-2-en-1-one], the viability at 50 µM in test [5] was 79%. Moreover, in test [6], the activity at 50 µM is 121%.
For `C=CC(=O)Nc1ccc(F)cc1` [DKM 3-31, N-(4-fluorophenyl)acrylamide] the same measures were 65% and 99%.
With `C=CC(=O)NC(C)CC` (stereo not shown) [DKM 3-32, N-(sec-butyl)acrylamide], in test [5], the viability at 50 µM is 70%. In test [6], the activity at 50 µM worked out at 95%.
For `C=CC(=O)N1CCN(c2ccc(OC)cc2)CC1` [DKM 3-36, 1-(4-(4-methoxyphenyl)piperazin-1-yl)prop-2-en-1-one], in test [5], the viability at 50 µM worked out at 54%. Also, in test [6], the activity at 50 µM came out at 97%.
Consider `C=CC(=O)NC(c1ccccc1)(c1ccccc1)c1ccccc1` [DKM 3-41, N-tritylacrylamide], for which the viability at 50 µM in test [5] came out at 55%. In addition, the activity at 50 µM in test [6] turned out to be 93%.
Taken in the same sequence, the figures for `C=CC(=O)NC/C=C(\C)CCC=C(C)C` [DKM 3-42, (E)-N-(3,7-dimethylocta-2,6-dien-1-yl)acrylamide] were 104% and 112%.
Taken in the same sequence, the figures for `C=CC(=O)NCc1ccc2c(c1)OCO2` [DKM 3-43, N-(benzo[d][1,3]dioxol-5-ylmethyl)acrylamide] were 52% and 94%.
Taken in the same sequence, the figures for `C=CC(=O)N(c1ccccc1)c1ccccc1` [DKM 3-70, N,N-diphenylacrylamide] were 57% and 53%.
`C=CC(=O)NCCCCCCCCCC` [TRH 1-12, N-decylacrylamide]: the viability at 50 µM in test [5] stood at 49%. Besides, in test [6], the activity at 50 µM was 89%.
For `C=CC(=O)NCc1ccc(OC)cc1OC` [TRH 1-13, N-(2,4-dimethoxybenzyl)acrylamide] the same measures were 94% and 128%.
For `C=CC(=O)Nc1ccccc1` [TRH 1-19, N-Phenylacrylamide] the same measures were 101% and 119%.
Regarding `C=CC(=O)NC(C)c1ccccc1` (stereo not shown) [TRH 1-20, N-(1-phenylethyl)acrylamide], the viability at 50 µM in test [5] was determined as 114%. Besides, the activity at 50 µM in test [6] turned out to be 121%.
Consider `C=CC(=O)N1CCCCC1CC` (stereo not shown) [TRH 1-27, 1-(2-ethylpiperidin-1-yl)prop-2-en-1-one], for which the viability at 50 µM in test [5] is 144%. Moreover, the activity at 50 µM in test [6] was determined as 125%.
As for `C=CC(=O)Nc1ccc(OC)cc1` [TRH 1-32, N-(4-methoxyphenyl)acrylamide], the viability at 50 µM in test [5] was 55%. Moreover, the activity at 50 µM in test [6] was found to be 100%.
Consider `C=CC(=O)Nc1ccc(C(F)(F)F)cc1` [TRH 1-50, N-(4-(trifluoromethyl)phenyl)acrylamide], for which, in test [5], the viability at 50 µM was 58%. Moreover, the activity at 50 µM in test [6] was 76%.
For `CCCN(C)C(=O)CCl` [TRH 1-53, 2-Chloro-N-methyl-N-propylacetamide] the same measures were 69% and 72%.
Consider `C=CC(=O)NCc1ccccc1C` [TRH 1-54, N-(2-methylbenzyl)acrylamide], for which, in test [5], the viability at 50 µM turned out to be 175%. For the same compound, the activity at 50 µM in test [6] amounted to 139%.
For `Cc1ccccc1CNC(=O)CCl` [TRH 1-55, 2-Chloro-N-(2-methylbenzyl)acetamide] the same measures were 47% and 53%.
Take `C=CC(=O)Nc1ccc(Oc2ccc(OC)cc2)cc1` [YP 1-46, N-(4-(4-methoxyphenoxy)phenyl)acrylamide]: in test [1] (pure human RTN4 protein, gel-based ABPP), the “displacement of IAyne labelling of RTN4” value was “less displacement”. Besides, the “cell survival in U2OS cells” value in test [2] is given as “not”. The “ER morphology in U2OS cells” value in test [3] is reported as “not”.
